From patent US8192962B2, “Processes for detecting toxic substances” (Daikin Industries, Ltd., priority 2001, dated 2012)

Test system: Unknown protein yeast genes
Assay: DNA chip mRNA expression in yeast, unknown protein yeast genes (Table 1)
Assay type: cell-based, Saccharomyces cerevisiae S288C
Method: Yeast (Saccharomyces cerevisiae S288C (α SUC2mal mel gap2 CUP1)) were incubated at 25° C. on YPD medium (yeast extract 1%, polypepton 2%, glucose 2%). One of toxic chemical substances was added to the cells at logarithmic growth phase, and the cells were further incubated for two hours. Cells were cultured without any chemical substance in the same condition, and were used as control. Concentrations of the chemical substances were defined to inhibit the growth of the yeast but not lead to death.
After completion of the incubation, the culture was centrifuged to collect the cells. To the cells, sodium acetate buffer (50 mM sodium acetate, 10 mM EDTA, 1% SDS) was added, and the mixture was shaken at 65° C. for five minutes, followed by returning to room temperature, and obtaining the supernatant, of which the procedures were repeated two times. To the supernatant, ½ amount of a solution of phenol/chloroform was added, and the mixture was centrifuged to give a supernatant, which was added with an equal amount of chloroform, and the mixture was centrifuged to give a supernatant. To the supernatant, an equal amount of isopropanol containing 0.3 M sodium acetate was added, and the mixture was allowed to stand at room temperature for 30 minutes, after which the mixture was centrifuged to give a sediment of the whole RNAs. Seventy % ethanol was added to the sediment, and the mixture was again centrifuged to give a sediment, which was then dried and dissolved in water. mRNA was isolated from the whole RNAs as followings. In view of the fact that a poly A chain is attached to the 3′ terminus of mRNA, a polynucleotide having a poly T structure which was immobilized on the surface of latex beads was used to trap the mRNA, and then the mRNA was washed and eluted with spine column (Oligotex-dT30<Super>mRNA Purification Kit, Takara). Reverse transcription of the mRNA was conducted with a reverse transcriptase (Super Script II Reverse Transcriptase; catalogue No. 18064-014, GibcoBRL) using fluorescence-labeled nucleotides to give cDNAs that were introduced with Cy3-dUTP or Cy5-dUTP during the reverse transcription.
The labeled cDNAs were dissolved in TE buffer (10mM Tris-HCl/1 mM EDTA, pH8.0), and the solution was dropped on the DNA chip containing the whole genes of yeast (DNA Chip Research Inc. Japan) so that the cDNAs were hybridized on the DNA chip at 65° C. for over 12 hours. The fluoresces intensity of the DNA chip was read with a scanner, and the ratio relative to the fluorescence intensity resulting from the absence of chemical substance was estimated as the following, which is shown in Tables 1 to 9: […]

Compound: N#Cc1c(Cl)c(Cl)c(Cl)c(C#N)c1Cl [(9), 2,4,5,6-tetrachloro-1,3-benzenedicarbonitrile]
- The level of expressed mRNA in the presence of chemical substance/The level of expressed mRNA in the absence of chemical substance (yeast gene YAL053W, incubated two hours with chemical substance): 1.4
- The level of expressed mRNA in the presence of chemical substance/The level of expressed mRNA in the absence of chemical substance (yeast gene YBL048W): 7.2
- The level of expressed mRNA in the presence of chemical substance/The level of expressed mRNA in the absence of chemical substance (yeast gene YBL107C): 1.0
- The level of expressed mRNA in the presence of chemical substance/The level of expressed mRNA in the absence of chemical substance (yeast gene YDL072C, incubated two hours with chemical substance): 1.1
- The level of expressed mRNA in the presence of chemical substance/The level of expressed mRNA in the absence of chemical substance (yeast gene YDL146W): 0.8
- The level of expressed mRNA in the presence of chemical substance/The level of expressed mRNA in the absence of chemical substance (yeast gene YDL204W, incubated two hours with chemical substance): 2.3
- The level of expressed mRNA in the presence of chemical substance/The level of expressed mRNA in the absence of chemical substance (yeast gene YDL222C, incubated two hours with chemical substance): 1.9
- The level of expressed mRNA in the presence of chemical substance/The level of expressed mRNA in the absence of chemical substance (yeast gene YDR057W): 1.5
- The level of expressed mRNA in the presence of chemical substance/The level of expressed mRNA in the absence of chemical substance (yeast gene YDR286C): 0.8
- The level of expressed mRNA in the presence of chemical substance/The level of expressed mRNA in the absence of chemical substance (yeast gene YDR330W, incubated two hours with chemical substance): 3.9
- The level of expressed mRNA in the presence of chemical substance/The level of expressed mRNA in the absence of chemical substance (yeast gene YDR391C, incubated two hours with chemical substance): 1.5
- The level of expressed mRNA in the presence of chemical substance/The level of expressed mRNA in the absence of chemical substance (yeast gene YDR411C, incubated two hours with chemical substance): 0.7
- The level of expressed mRNA in the presence of chemical substance/The level of expressed mRNA in the absence of chemical substance (yeast gene YDR511W, incubated two hours with chemical substance): 2.5
- The level of expressed mRNA in the presence of chemical substance/The level of expressed mRNA in the absence of chemical substance (yeast gene YDR545W, incubated two hours with chemical substance): 1.8
- The level of expressed mRNA in the presence of chemical substance/The level of expressed mRNA in the absence of chemical substance (yeast gene YEL001C, incubated two hours with chemical substance): 2.0
- The level of expressed mRNA in the presence of chemical substance/The level of expressed mRNA in the absence of chemical substance (yeast gene YER004W, incubated two hours with chemical substance): 4.5
- The level of expressed mRNA in the presence of chemical substance/The level of expressed mRNA in the absence of chemical substance (yeast gene YER035W, incubated two hours with chemical substance): 1.2
- The level of expressed mRNA in the presence of chemical substance/The level of expressed mRNA in the absence of chemical substance (yeast gene YER079W, incubated two hours with chemical substance): 5.3
- The level of expressed mRNA in the presence of chemical substance/The level of expressed mRNA in the absence of chemical substance (yeast gene YER106W, incubated two hours with chemical substance): 0.4
- The level of expressed mRNA in the presence of chemical substance/The level of expressed mRNA in the absence of chemical substance (yeast gene YER158C, incubated two hours with chemical substance): 2.1
- The level of expressed mRNA in the presence of chemical substance/The level of expressed mRNA in the absence of chemical substance (yeast gene YER163C, incubated two hours with chemical substance): 5.4
- The level of expressed mRNA in the presence of chemical substance/The level of expressed mRNA in the absence of chemical substance (yeast gene YER175C, incubated two hours with chemical substance): 1.9
- The level of expressed mRNA in the presence of chemical substance/The level of expressed mRNA in the absence of chemical substance (yeast gene YFL006W, incubated two hours with chemical substance): 3.2
- The level of expressed mRNA in the presence of chemical substance/The level of expressed mRNA in the absence of chemical substance (yeast gene YFL010C, incubated two hours with chemical substance): 3.1
- The level of expressed mRNA in the presence of chemical substance/The level of expressed mRNA in the absence of chemical substance (yeast gene YFL017C): 0.8
- The level of expressed mRNA in the presence of chemical substance/The level of expressed mRNA in the absence of chemical substance (yeast gene YFL024C): 0.5
- The level of expressed mRNA in the presence of chemical substance/The level of expressed mRNA in the absence of chemical substance (yeast gene YFL032W, incubated two hours with chemical substance): 0.5
- The level of expressed mRNA in the presence of chemical substance/The level of expressed mRNA in the absence of chemical substance (yeast gene YFR008W): 1.5
- The level of expressed mRNA in the presence of chemical substance/The level of expressed mRNA in the absence of chemical substance (yeast gene YGL037C, incubated two hours with chemical substance): 2.1
- The level of expressed mRNA in the presence of chemical substance/The level of expressed mRNA in the absence of chemical substance (yeast gene YGL047W, incubated two hours with chemical substance): 4.5
- The level of expressed mRNA in the presence of chemical substance/The level of expressed mRNA in the absence of chemical substance (yeast gene YGL053W, incubated two hours with chemical substance): 3.3
- The level of expressed mRNA in the presence of chemical substance/The level of expressed mRNA in the absence of chemical substance (yeast gene YGL121C): 7.0
- The level of expressed mRNA in the presence of chemical substance/The level of expressed mRNA in the absence of chemical substance (yeast gene YGR101W, incubated two hours with chemical substance): 4.0
- The level of expressed mRNA in the presence of chemical substance/The level of expressed mRNA in the absence of chemical substance (yeast gene YGR110W): 6.4
- The level of expressed mRNA in the presence of chemical substance/The level of expressed mRNA in the absence of chemical substance (yeast gene YGR130C, incubated two hours with chemical substance): 2.0
- The level of expressed mRNA in the presence of chemical substance/The level of expressed mRNA in the absence of chemical substance (yeast gene YGR154C, incubated two hours with chemical substance): 25.2
- The level of expressed mRNA in the presence of chemical substance/The level of expressed mRNA in the absence of chemical substance (yeast gene YHL042W): 0.8
- The level of expressed mRNA in the presence of chemical substance/The level of expressed mRNA in the absence of chemical substance (yeast gene YHR138C, incubated two hours with chemical substance): 5.3
- The level of expressed mRNA in the presence of chemical substance/The level of expressed mRNA in the absence of chemical substance (yeast gene YHR199C, incubated two hours with chemical substance): 8.6
- The level of expressed mRNA in the presence of chemical substance/The level of expressed mRNA in the absence of chemical substance (yeast gene YIL023C, incubated two hours with chemical substance): 3.5
- The level of expressed mRNA in the presence of chemical substance/The level of expressed mRNA in the absence of chemical substance (yeast gene YIL024C, incubated two hours with chemical substance): 2.2
- The level of expressed mRNA in the presence of chemical substance/The level of expressed mRNA in the absence of chemical substance (yeast gene YIL041W, incubated two hours with chemical substance): 1.8
- The level of expressed mRNA in the presence of chemical substance/The level of expressed mRNA in the absence of chemical substance (yeast gene YIL087C, incubated two hours with chemical substance): 2.4
- The level of expressed mRNA in the presence of chemical substance/The level of expressed mRNA in the absence of chemical substance (yeast gene YIL117C, incubated two hours with chemical substance): 2.3
- The level of expressed mRNA in the presence of chemical substance/The level of expressed mRNA in the absence of chemical substance (yeast gene YJL057C, incubated two hours with chemical substance): 7.3
- The level of expressed mRNA in the presence of chemical substance/The level of expressed mRNA in the absence of chemical substance (yeast gene YJL066C, incubated two hours with chemical substance): 2.0
- The level of expressed mRNA in the presence of chemical substance/The level of expressed mRNA in the absence of chemical substance (yeast gene YJL082W, incubated two hours with chemical substance): 1.4
- The level of expressed mRNA in the presence of chemical substance/The level of expressed mRNA in the absence of chemical substance (yeast gene YJL108C, incubated two hours with chemical substance): 0.3
- The level of expressed mRNA in the presence of chemical substance/The level of expressed mRNA in the absence of chemical substance (yeast gene YJL151C, incubated two hours with chemical substance): 0.5
- The level of expressed mRNA in the presence of chemical substance/The level of expressed mRNA in the absence of chemical substance (yeast gene YJL152W, incubated two hours with chemical substance): 0.3
- The level of expressed mRNA in the presence of chemical substance/The level of expressed mRNA in the absence of chemical substance (yeast gene YJL161W, incubated two hours with chemical substance): 3.1
- The level of expressed mRNA in the presence of chemical substance/The level of expressed mRNA in the absence of chemical substance (yeast gene YJL171C, incubated two hours with chemical substance): 1.0
- The level of expressed mRNA in the presence of chemical substance/The level of expressed mRNA in the absence of chemical substance (yeast gene YJR008W, incubated two hours with chemical substance): 1.8
- The level of expressed mRNA in the presence of chemical substance/The level of expressed mRNA in the absence of chemical substance (yeast gene YKL065C): 3.1
- The level of expressed mRNA in the presence of chemical substance/The level of expressed mRNA in the absence of chemical substance (yeast gene YKL071W): 162.2
- The level of expressed mRNA in the presence of chemical substance/The level of expressed mRNA in the absence of chemical substance (yeast gene YKL086W, incubated two hours with chemical substance): 8.2
- The level of expressed mRNA in the presence of chemical substance/The level of expressed mRNA in the absence of chemical substance (yeast gene YKL147C): 1.0
- The level of expressed mRNA in the presence of chemical substance/The level of expressed mRNA in the absence of chemical substance (yeast gene YKL151C, incubated two hours with chemical substance): 3.3
- The level of expressed mRNA in the presence of chemical substance/The level of expressed mRNA in the absence of chemical substance (yeast gene YKL153W, incubated two hours with chemical substance): 0.8
